In patent US10202361B2, “Pyridazinones as herbicides” (E I DU PONT DE NEMOURS AND COMPANY, priority 2014, dated 2019):

What was measured:
Type in all cases: in vivo
[1] = tested on: morningglory (Ipomoea spp.); test: Test A pre-/postemergence greenhouse herbicide test; conditions: 0 to 100 scale (0 no effect, 100 complete control), approx. 10 d
From the text: (§1) Seeds of plant species selected from barnyardgrass (Echinochloa crus-galli), crabgrass, Large (large crabgrass, Digitaria sanguinalis), foxtail, giant (giant foxtail, Setaria faberii), morningglory (Ipomoea spp.), pigweed (Amaranthus retroflexus), velvetleaf (Abutilon theophrasti), wheat (Triticum aestivum), and corn (Zea mays) were planted into a blend of loam soil and sand and treated preemergence with a directed soil spray using test chemicals formulated in a non-phytotoxic solvent mixture which included a surfactant. At the same time these species were also treated with postemergence applications of test chemicals formulated in the same manner.
(§2) Plants ranged in height from 2 to 10 cm and were in the one- to two-leaf stage for the postemergence treatment. Treated plants and untreated controls were maintained in a greenhouse for approximately 10 d, after which time all treated plants were compared to untreated controls and visually evaluated for injury. Plant response ratings, summarized in Table A, are based on a 0 to 100 scale where 0 is no effect and 100 is complete control. A dash (-) response means no test result.

[2] = tested on: velvetleaf (Abutilon theophrasti); test: as above; conditions: 0 to 100 scale (0 no effect, 100 complete control), approx. 10 d
From the text: as §1, §2

[3] = tested on: crabgrass, Large (large crabgrass, Digitaria sanguinalis); test: as above; conditions: 0 to 100 scale (0 no effect, 100 complete control), approx. 10 d
From the text: as §1, §2

[4] = tested on: foxtail, giant (giant foxtail, Setaria faberii); test: as above; conditions: 0 to 100 scale (0 no effect, 100 complete control), approx. 10 d
From the text: as §1, §2

[5] = tested on: wheat (Triticum aestivum); test: as above; conditions: 0 to 100 scale (0 no effect, 100 complete control), approx. 10 d
From the text: as §1, §2

corn (Zea mays) = test: as above; conditions: 0 to 100 scale (0 no effect, 100 complete control), approx. 10 d
From the text: as §1, §2

[6] = tested on: barnyardgrass (Echinochloa crus-galli); test: as above; conditions: 0 to 100 scale (0 no effect, 100 complete control), approx. 10 d
From the text: as §1, §2

[7] = tested on: pigweed (Amaranthus retroflexus); test: as above; conditions: 0 to 100 scale (0 no effect, 100 complete control), approx. 10 d
From the text: as §1, §2

[8] = tested on: ducksalad (Heteranthera limosa); test: Test B flooded paddy test; conditions: Flood, scale of 0 to 100, 0 is no effect, 100 is complete control, 13 to 15 d
Protocol: (§3) Plant species in the flooded paddy test selected from rice (Oryza sativa), small-flower sedge, umbrella (small-flower umbrella sedge, Cyperus difformis), ducksalad (Heteranthera limosa), and barnyardgrass (Echinochloa crus-galli) were grown to the 2-leaf stage for testing. At time of treatment, test pots were flooded to 3 cm above the soil surface, treated by application of test compounds directly to the paddy water, and then maintained at that water depth for the duration of the test. Treated plants and controls were maintained in a greenhouse for 13 to 15 d, after which time all species were compared to controls and visually evaluated. Plant response ratings, summarized in Table B, are based on a scale of 0 to 100 where 0 is no effect and 100 is complete control. A dash (-) response means no test result.

rice (Oryza sativa) = test: Test B flooded paddy test; conditions: Flood, scale of 0 to 100, 0 is no effect, 100 is complete control, 13 to 15 d
Protocol: as §3

[9] = tested on: barnyardgrass (Echinochloa crus-galli); test: Test B flooded paddy test; conditions: Flood, scale of 0 to 100, 0 is no effect, 100 is complete control, 13 to 15 d
Protocol: as §3

[10] = tested on: sedge, umbrella (small-flower umbrella sedge, Cyperus difformis); test: Test B flooded paddy test; conditions: Flood, scale of 0 to 100, 0 is no effect, 100 is complete control, 13 to 15 d
Protocol: as §3

SMILES: Cc1cc(Oc2ccnc(C(F)(F)F)c2)nn(-c2ccc(F)cc2)c1=O [Compound 13]
- Plant response rating, Morningglory ([1]; Postemergence, 125 g ai/ha): 50
- Plant response rating, Morningglory ([1]; Postemergence, 500 g ai/ha): 60
- Plant response rating, Morningglory ([1]; Preemergence, 125 g ai/ha): 20
- Plant response rating, Morningglory ([1]; Preemergence, 500 g ai/ha): 80
- Plant response rating, Velvetleaf ([2]; Postemergence, 125 g ai/ha): 60
- Plant response rating, Velvetleaf ([2]; Postemergence, 500 g ai/ha): 70
- Plant response rating, Velvetleaf ([2]; Preemergence, 125 g ai/ha): 10
- Plant response rating, Velvetleaf ([2]; Preemergence, 500 g ai/ha): 50
- Plant response rating, Crabgrass, Large ([3]; Postemergence, 125 g ai/ha): 50
- Plant response rating, Crabgrass, Large ([3]; Postemergence, 500 g ai/ha): 90
- Plant response rating, Crabgrass, Large ([3]; Preemergence, 125 g ai/ha): 100
- Plant response rating, Crabgrass, Large ([3]; Preemergence, 500 g ai/ha): 100
- Plant response rating, Foxtail, Giant ([4]; Postemergence, 125 g ai/ha): 50
- Plant response rating, Foxtail, Giant ([4]; Postemergence, 500 g ai/ha): 90
- Plant response rating, Foxtail, Giant ([4]; Preemergence, 125 g ai/ha): 80
- Plant response rating, Foxtail, Giant ([4]; Preemergence, 500 g ai/ha): 100
- Plant response rating, Wheat ([5]; Postemergence, 125 g ai/ha): 0
- Plant response rating, Wheat ([5]; Postemergence, 500 g ai/ha): 20
- Plant response rating, Wheat ([5]; Preemergence, 125 g ai/ha): 0
- Plant response rating, Wheat ([5]; Preemergence, 500 g ai/ha): 10
- Plant response rating, Corn (corn (Zea mays); Postemergence, 125 g ai/ha): 20
- Plant response rating, Corn (corn (Zea mays); Postemergence, 500 g ai/ha): 50
- Plant response rating, Corn (corn (Zea mays); Preemergence, 125 g ai/ha): 0
- Plant response rating, Corn (corn (Zea mays); Preemergence, 500 g ai/ha): 10
- Plant response rating, Barnyardgrass ([6]; Postemergence, 125 g ai/ha): 10
- Plant response rating, Barnyardgrass ([6]; Postemergence, 500 g ai/ha): 60
- Plant response rating, Barnyardgrass ([6]; Preemergence, 125 g ai/ha): 0
- Plant response rating, Barnyardgrass ([6]; Preemergence, 500 g ai/ha): 60
- Plant response rating, Pigweed ([7]; Postemergence, 125 g ai/ha): 90
- Plant response rating, Pigweed ([7]; Postemergence, 500 g ai/ha): 100
- Plant response rating, Pigweed ([7]; Preemergence, 125 g ai/ha): 80
- Plant response rating, Pigweed ([7]; Preemergence, 500 g ai/ha): 90
- Plant response rating, Ducksalad ([8]; 250 g ai/ha): 30
- Plant response rating, Rice (rice (Oryza sativa); 250 g ai/ha): 0
- Plant response rating, Barnyardgrass ([9]; 250 g ai/ha): 0
- Plant response rating, Sedge, Umbrella ([10]; 250 g ai/ha): 65

SMILES: Cc1cc(=O)n(-c2ccccc2)nc1Oc1ccnc(C(F)(F)F)c1 [Compound 15]
- Plant response rating, Morningglory ([1]; Postemergence, 125 g ai/ha): 100
- Plant response rating, Morningglory ([1]; Postemergence, 500 g ai/ha): 100
- Plant response rating, Morningglory ([1]; Preemergence, 125 g ai/ha): 90
- Plant response rating, Morningglory ([1]; Preemergence, 500 g ai/ha): 100
- Plant response rating, Velvetleaf ([2]; Postemergence, 125 g ai/ha): 70
- Plant response rating, Velvetleaf ([2]; Postemergence, 500 g ai/ha): 90
- Plant response rating, Velvetleaf ([2]; Preemergence, 125 g ai/ha): 30
- Plant response rating, Velvetleaf ([2]; Preemergence, 500 g ai/ha): 70
- Plant response rating, Crabgrass, Large ([3]; Postemergence, 125 g ai/ha): 80
- Plant response rating, Crabgrass, Large ([3]; Postemergence, 500 g ai/ha): 90
- Plant response rating, Crabgrass, Large ([3]; Preemergence, 125 g ai/ha): 100
- Plant response rating, Crabgrass, Large ([3]; Preemergence, 500 g ai/ha): 100
- Plant response rating, Foxtail, Giant ([4]; Postemergence, 125 g ai/ha): 70
- Plant response rating, Foxtail, Giant ([4]; Postemergence, 500 g ai/ha): 90
- Plant response rating, Foxtail, Giant ([4]; Preemergence, 125 g ai/ha): 100
- Plant response rating, Foxtail, Giant ([4]; Preemergence, 500 g ai/ha): 100
- Plant response rating, Wheat ([5]; Postemergence, 125 g ai/ha): 20
- Plant response rating, Wheat ([5]; Postemergence, 500 g ai/ha): 60
- Plant response rating, Wheat ([5]; Preemergence, 125 g ai/ha): 0
- Plant response rating, Wheat ([5]; Preemergence, 500 g ai/ha): 20
- Plant response rating, Corn (corn (Zea mays); Postemergence, 125 g ai/ha): 40
- Plant response rating, Corn (corn (Zea mays); Postemergence, 500 g ai/ha): 80
- Plant response rating, Corn (corn (Zea mays); Preemergence, 125 g ai/ha): 10
- Plant response rating, Corn (corn (Zea mays); Preemergence, 500 g ai/ha): 20
- Plant response rating, Barnyardgrass ([6]; Postemergence, 125 g ai/ha): 70
- Plant response rating, Barnyardgrass ([6]; Postemergence, 500 g ai/ha): 90
- Plant response rating, Barnyardgrass ([6]; Preemergence, 125 g ai/ha): 50
- Plant response rating, Barnyardgrass ([6]; Preemergence, 500 g ai/ha): 100
- Plant response rating, Pigweed ([7]; Postemergence, 125 g ai/ha): 100
- Plant response rating, Pigweed ([7]; Postemergence, 500 g ai/ha): 100
- Plant response rating, Pigweed ([7]; Preemergence, 125 g ai/ha): 100
- Plant response rating, Pigweed ([7]; Preemergence, 500 g ai/ha): 100
- Plant response rating, Ducksalad ([8]; 250 g ai/ha): 70
- Plant response rating, Rice (rice (Oryza sativa); 250 g ai/ha): 0
- Plant response rating, Barnyardgrass ([9]; 250 g ai/ha): 0
- Plant response rating, Sedge, Umbrella ([10]; 250 g ai/ha): 70

SMILES: CCOc1cc(=O)n(-c2ccc(C(F)(F)F)cc2)nc1Cc1ccnc(C(F)(F)F)c1 [Compound 18]
- Plant response rating, Morningglory ([1]; Postemergence, 125 g ai/ha): 30
- Plant response rating, Morningglory ([1]; Postemergence, 500 g ai/ha): 70
- Plant response rating, Morningglory ([1]; Preemergence, 125 g ai/ha): 30
- Plant response rating, Morningglory ([1]; Preemergence, 500 g ai/ha): 30
- Plant response rating, Velvetleaf ([2]; Postemergence, 125 g ai/ha): 30
- Plant response rating, Velvetleaf ([2]; Postemergence, 500 g ai/ha): 80
- Plant response rating, Velvetleaf ([2]; Preemergence, 125 g ai/ha): 40
- Plant response rating, Velvetleaf ([2]; Preemergence, 500 g ai/ha): 40
- Plant response rating, Crabgrass, Large ([3]; Postemergence, 125 g ai/ha): 60
- Plant response rating, Crabgrass, Large ([3]; Postemergence, 500 g ai/ha): 80
- Plant response rating, Crabgrass, Large ([3]; Preemergence, 125 g ai/ha): 100
- Plant response rating, Crabgrass, Large ([3]; Preemergence, 500 g ai/ha): 100
- Plant response rating, Foxtail, Giant ([4]; Postemergence, 125 g ai/ha): 20
- Plant response rating, Foxtail, Giant ([4]; Postemergence, 500 g ai/ha): 50
- Plant response rating, Foxtail, Giant ([4]; Preemergence, 125 g ai/ha): 100
- Plant response rating, Foxtail, Giant ([4]; Preemergence, 500 g ai/ha): 100
- Plant response rating, Wheat ([5]; Postemergence, 125 g ai/ha): 10
- Plant response rating, Wheat ([5]; Postemergence, 500 g ai/ha): 20
- Plant response rating, Wheat ([5]; Preemergence, 125 g ai/ha): 0
- Plant response rating, Wheat ([5]; Preemergence, 500 g ai/ha): 20
- Plant response rating, Corn (corn (Zea mays); Postemergence, 125 g ai/ha): 20
- Plant response rating, Corn (corn (Zea mays); Postemergence, 500 g ai/ha): 40
- Plant response rating, Corn (corn (Zea mays); Preemergence, 125 g ai/ha): 10
- Plant response rating, Corn (corn (Zea mays); Preemergence, 500 g ai/ha): 10
- Plant response rating, Barnyardgrass ([6]; Postemergence, 125 g ai/ha): 30
- Plant response rating, Barnyardgrass ([6]; Postemergence, 500 g ai/ha): 40
- Plant response rating, Barnyardgrass ([6]; Preemergence, 125 g ai/ha): 60
- Plant response rating, Barnyardgrass ([6]; Preemergence, 500 g ai/ha): 90
- Plant response rating, Pigweed ([7]; Postemergence, 125 g ai/ha): 90
- Plant response rating, Pigweed ([7]; Postemergence, 500 g ai/ha): 100
- Plant response rating, Pigweed ([7]; Preemergence, 125 g ai/ha): 100
- Plant response rating, Pigweed ([7]; Preemergence, 500 g ai/ha): 100
- Plant response rating, Ducksalad ([8]; 125 g ai/ha): 0
- Plant response rating, Rice (rice (Oryza sativa); 125 g ai/ha): 0
- Plant response rating, Barnyardgrass ([9]; 125 g ai/ha): 0
- Plant response rating, Sedge, Umbrella ([10]; 125 g ai/ha): 75
